We go through three compounds from patent publication US20250120394A1, “SILANE SURFACTANT FOR AGRICULTURAL USE” (MOMENTIVE PERFORMANCE MATERIALS INC., priority 2023, published 2025).

What all share (type): in vivo
Experiment [1] deals with red banded stink bug (Piezodorus guildinii). Put plainly: Field trial: control of stink bug on green beans with Cefanol acephate plus adjuvant. Particulars: Cefanol acephate 0.50 kg/ha alone. As for the experimental part:
A composition of the present invention (SIL-8) was compared to a conventional trisiloxane alkoxylate (TSA-2) for the improvement of the insecticide acephate in the control of stink-bug.
The experiment was conducted with a randomized block design, with 6 treatments (including the untreated check) and 4 repetitions. Each plot was of 12 m^2 in area. The data obtained were subjected to analysis of variance and the average of the treatments compared using the Tukey test to 5% probability test.
During the trial there were […] evaluation periods: 0, 3, 5 and 7 Days After Application (DAA), for determining the number of red banded stink bugs in each plot evaluated.
The treatments were applied using a CO2 pressurized Backpack sprayer, with 4 nozzles spaced 50 cm between each one. Nozzles type XR11002 (Flat Fan) and a spray volume 150 L·ha.

Experiment [2] concerns Yellow Foxtail (Setaria pumila). Put plainly: Control of Yellow Foxtail with glyphosate-isopropylamine salt, visual weed control. Particulars: glyphosate-isopropylamine salt 0.75% a.i. alone, adjuvant 0. As for the experimental part: (§1) Spray Protocol: A lab spray trial was conducted to evaluate the effect of the silane compositions in accordance with the present technology on the performance of various herbicides.
(§2) Target weeds were grown from seed, under controlled conditions in a “Caron Model 7301-50-2” Growth chamber using simulated full sunlight. Sprays were applied to the target weeds at the 4-6 leaf growth stage using a DeVries Generation 4—Research Track Sprayer with a T-Jet 8002E nozzle at an equivalent spray volume of 100 L/ha.
Glyphosate-isopropylamine salt was applied at 0.75% a.i. to Yellow foxtail at a 15 cm growth-stage. The spray mixtures were applied either as herbicide alone, or in combination with the silane compositions SIL-6, SIL-9 and SIL-12 at an equivalent spray volume of 100 L/ha. A visual assessment of weed control was made at 7 and 14 Days After Treatment (DAT). The application method is the same as previously described.

Experiment [3] relates to Redroot pigweed (Amaranthus retroflexus, EPPO Code: AMARE). Put plainly: Effect of adjuvant on performance of 2,4-D Amine, lab spray trial, visual weed control. Particulars: 2,4-D amine 0.25 wt % alone, no adjuvant. The procedure: as §1, §2
SIL-8 was compared to a conventional trisiloxane alkoxylate (TSA-1) as a spray adjuvant, to improve the performance of 2,4-D Amine (herbicide) on AMARE. The spray protocol is described above. The 2,4-D Amine was applied at a sub lethal dose (25% of label rate) to show the impact of the adjuvant on performance. Assessment of weed control was made by a visual observation as compared to an untreated check.

Structures can show the parent of a compound that is named as a salt.

As for `COP(=O)(NC(C)=O)SC` (centres unmarked) [Acephate], in experiment [1], the “Eff. %, 1 DAA” value is 76.0%; the “Eff. %, 3 DAA” value was determined as 60.0%; the “Eff. %, 5 DAA” value was found to be 45.5%; the “Eff. %, 7 DAA” value was 63.6%. Moreover, in experiment [1], the “Number of red banded stink bug, 1 DAA” value is 0.5 b; the “Number of red banded stink bug, 3 DAA” value turned out to be 0.7 b; the “Number of red banded stink bug, 5 DAA” value came to 0.5 a; the “Number of red banded stink bug, 7 DAA” value is given as 0.3 b. In addition, in experiment [1] (0 DAA (initial)), the “Eff. %, 0 DAA” value stood at 0.0% and the “Number of red banded stink bug, 0 DAA” value is 1.8 a.

Consider `O=C(O)CNCP(=O)(O)O` [Glyphosate, Glyphosate-isopropylamine salt], for which, in experiment [2], the “Weed control of Yellow foxtail, 7 DAT” value was determined as 20 and the “Weed control of Yellow foxtail, 14 DAT” value stood at 92.

On to `CNC.O=C(O)COc1ccc(Cl)cc1Cl` [2,4-D amine, 2,4-D Amine], for which, in experiment [3], the “Weed control of AMARE, 7-DAT” value came to 46% and the “Weed control of AMARE, 14-DAT” value was 55%.
